According to patent US8680052B1, “Methods of treating, reducing the incidence of, and/or preventing ischemic events” (The Medicines Company, priority 2013, dated 2014):

Legend:
[1] = test system: patients with acute coronary syndromes undergoing PCI; experiment: Example 2: bleeding (GUSTO, TIMI, ACUITY) and adverse events up to 48 hours; assay type: in vivo, human
From the text: Multiple definitions of bleeding were used for full disclosure of bleeding risks associated with cangrelor: […] N Engl J Med 329:673-82 (1993); mild, moderate, or severe/life-threatening based on transfusion use and presence/absence of hemodynamic compromise); […] Investigators reported adverse and serious adverse events according to International Conference on Harmonization guidance (International Conference on Harmonization (ICH) Guidance Documents. U.S. Food and Drug Administration Web site. (Accessed on Oct. 8, 2009, at the FDA website beginning with “www.” and ending with “fda.gov/RegulatoryInformation/Guidances/ucm122049.htm”)).

P2Y12 receptor = biological target: T1, P2Y12 receptor (Homo sapiens, UniProt Q9H244); experiment: Example 2 substudy: platelet function by VerifyNow P2Y12 Assay; assay type: in vivo
T1 construct: from tissue; host or cells: platelets in whole blood of patients
Experimental: Platelet function parameters were measured using the VerifyNow® P2Y12 Assay (Accumetrics, San Diego, Calif.). Samples were taken before study drug administration, at approximately 2 hours (during cangrelor/placebo infusion), and 10 hours or next day following randomization.

[2] = test system: patients with atherosclerosis undergoing PCI; assay type: in vivo; conditions: human, in vivo, 48 h
Experimental: The primary safety end point was severe bleeding not related to coronary-artery bypass grafting, according to the Global Use of Strategies to Open Occluded Coronary Arteries (GUSTO) criteria, at 48 hours. Several other bleeding definitions were also applied.

T1 sequence (Q9H244 whole entry): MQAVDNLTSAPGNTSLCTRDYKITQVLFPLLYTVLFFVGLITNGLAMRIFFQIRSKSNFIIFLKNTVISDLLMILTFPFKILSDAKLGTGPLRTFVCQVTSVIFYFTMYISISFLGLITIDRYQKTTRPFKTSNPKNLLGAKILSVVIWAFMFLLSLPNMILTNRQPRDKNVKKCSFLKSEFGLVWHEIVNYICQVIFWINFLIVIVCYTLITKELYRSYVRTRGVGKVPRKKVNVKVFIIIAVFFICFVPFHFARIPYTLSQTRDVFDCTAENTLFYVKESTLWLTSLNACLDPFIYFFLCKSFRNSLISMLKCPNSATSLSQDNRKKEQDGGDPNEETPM

COC(=O)[C@H](c1ccccc1Cl)N1CCc2sccc2C1 [Clopidogrel, clopidogrel, reference compound]
ACUITY criteria Major bleeding ([1]; 48-hour, safety population): 126 (2.9) no. (%) | ACUITY criteria Minor bleeding ([1]; 48-hour, safety population): 663 (15.2) no. (%) | Access site bleeding requiring radiologic or surgical intervention ([1]; 48-hour, safety population): 10 (0.2) no. (%) | Any blood transfusion ([1]; 48-hour, safety population): 42 (1.0) no. (%) | Any platelet transfusion ([1]; 48-hour, safety population): 5 (0.1) no. (%) | Drop in hemoglobin and/or hematocrit ([1]; 48-hour, safety population): 63 (1.4) no. (%) | Ecchymosis ([1]; 48-hour, safety population): 234 (5.4) no. (%) | Epistaxis ([1]; 48-hour, safety population): 22 (0.5) no. (%) | GUSTO criteria Mild bleeding ([1]; 48-hour, safety population): 739 (16.9) no. (%) | GUSTO criteria Moderate bleeding ([1]; 48-hour, safety population): 34 (0.8) no. (%) | GUSTO criteria Severe/life-threatening bleeding ([1]; 48-hour, safety population): 11 (0.3) no. (%) | Hematoma <5 cm at puncture site ([1]; 48-hour, safety population): 222 (5.1) no. (%) | Hematoma ≧5 cm at puncture site ([1]; 48-hour, safety population): 76 (1.7) no. (%) | Hemodynamic compromise ([1]; 48-hour, safety population): 11 (0.3) no. (%) | Intracranial hemorrhage ([1]; 48-hour, safety population): 0 (0.0) no. (%) | Intraocular ([1]; 48-hour, safety population): 0 (0.0) no. (%) | Oozing at puncture site ([1]; 48-hour, safety population): 319 (7.3) no. (%) | Reoperation for bleeding ([1]; 48-hour, safety population): 1 (0.0) no. (%) | Retroperitoneal ([1]; 48-hour, safety population): 10 (0.2) no. (%) | TIMI criteria Major bleeding ([1]; 48-hour, safety population): 14 (0.3) no. (%) | TIMI criteria Minor bleeding ([1]; 48-hour, safety population): 26 (0.6) no. (%) | Thrombocytopenia ([1]; 48-hour, safety population): 7 (0.2) no. (%) | Dyspnea ([1]; human, in vivo, 48 h): 0.4% | Serious adverse events ([1]; human, in vivo, 48 h): 2.7% | discontinuation of study drug due to an adverse event ([1]; human, in vivo, 48 h): 0.5% | Reported adverse events ([1]; safety population): 25.7% | median PRU (VerifyNow P2Y12 assay) (P2Y12 receptor; 12-24 hours after discontinuation of the cangrelor infusion): 206 PRU | median PRU (VerifyNow P2Y12 assay) (P2Y12 receptor; during the study drug infusion (approx. 2 hours)): 277 PRU | Any blood transfusion [2]: 16/5527 (0.3) number/total number (percent) | GUSTO-defined bleeding, primary safety end point: severe or life-threatening bleeding [2]: 6/5527 (0.1) number/total number (percent) | GUSTO-defined moderate bleeding [2]: 13/5527 (0.2) number/total number (percent) | GUSTO-defined severe or moderate bleeding [2]: 19/5527 (0.3) number/total number (percent) | TIMI-defined major bleeding [2]: 5/5527 (0.1) number/total number (percent) | TIMI-defined major or minor bleeding [2]: 8/5527 (0.3) number/total number (percent) | TIMI-defined minor bleeding [2]: 3/5527 (0.1) number/total number (percent) | adverse events that led to discontinuation of the study drug [2]: 0.4% | rate of GUSTO-defined severe bleeding (primary safety end point) [2]: 0.11% | rate of adverse events related to treatment [2]: 19.1% | transient dyspnea [2]: 0.3%
